Laboratory results published in patent US7488730B2, “N-(1,2,3,4-tetrahydronaphthalen-1-yl)-4-phenyl-1-piperazinealkylamide derivatives, and therapeutic use thereof as 5-HT7 receptor ligands” (Universita Degli Studi Di Bari, priority 2005, dated 2009).
“Also recorded” adds a separate entry of the source.

Key:
[1] = target: T1, rat cloned 5-HT7 receptor (Rattus norvegicus, UniProt P32305); assay: Radioligand binding assay ([3H]-LSD) at rat cloned 5-HT7Rs; settings: for Ki: [3H]-LSD, rat recombinant 5-HT7R expressed in HEK-293 cells
T1 construct: purchased PerkinElmer-NEN; host or cells: HEK-293
T1 sequence (P32305 whole entry): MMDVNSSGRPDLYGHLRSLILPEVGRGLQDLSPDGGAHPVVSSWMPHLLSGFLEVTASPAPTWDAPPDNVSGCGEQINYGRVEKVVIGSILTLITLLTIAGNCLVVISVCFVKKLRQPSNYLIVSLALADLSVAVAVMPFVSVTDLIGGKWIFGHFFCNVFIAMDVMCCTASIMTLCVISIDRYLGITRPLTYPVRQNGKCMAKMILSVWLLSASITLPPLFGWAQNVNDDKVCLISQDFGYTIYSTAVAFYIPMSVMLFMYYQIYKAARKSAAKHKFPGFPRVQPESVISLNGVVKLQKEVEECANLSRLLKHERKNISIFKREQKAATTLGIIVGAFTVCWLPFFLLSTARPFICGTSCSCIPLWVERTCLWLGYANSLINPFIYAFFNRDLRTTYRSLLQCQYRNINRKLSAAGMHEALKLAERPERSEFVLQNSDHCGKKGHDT
Description: Rat recombinant serotonin 5-HT7R expressed in HEK-293 cells were purchased from PerkinElmer-NEN (Betsville, Md., USA).
Radioligand Binding Assay at Rat Cloned 5-HT7Rs. Binding of [^3H]-LSD at rat cloned 5-HT7 receptor was performed according to a known method. In 1 mL of incubation buffer (50 mM Tris, 10 mM MgCl2 and 0.5 mM EDTA, pH 7.4) were suspended 30 μg of membranes, 2.5 nM [^3H]-LSD, the drugs or reference compound (six to nine concentrations). The samples were incubated for 60 min at 37° C. The incubation was stopped by rapid filtration on GF/A glass fiber filters (pre-soaked in 0.5% polyethylenimine for 30 min). The filters were washed with 3 ? 3 mL of ice-cold buffer (50 mM Tris, pH 7.4). Nonspecific binding was determined in the presence of 10 μM 5-CT. Approximately 90% of specific binding was determined under these conditions.

5-HT1A receptors = target: T2, 5-HT1A receptors (Rattus norvegicus, UniProt P19327); settings: for Ki: read-out: Ki, nM 5-HT1A, [3H]-8-OH-DPAT, rat hippocampal membranes
T2 sequence (P19327 1-422): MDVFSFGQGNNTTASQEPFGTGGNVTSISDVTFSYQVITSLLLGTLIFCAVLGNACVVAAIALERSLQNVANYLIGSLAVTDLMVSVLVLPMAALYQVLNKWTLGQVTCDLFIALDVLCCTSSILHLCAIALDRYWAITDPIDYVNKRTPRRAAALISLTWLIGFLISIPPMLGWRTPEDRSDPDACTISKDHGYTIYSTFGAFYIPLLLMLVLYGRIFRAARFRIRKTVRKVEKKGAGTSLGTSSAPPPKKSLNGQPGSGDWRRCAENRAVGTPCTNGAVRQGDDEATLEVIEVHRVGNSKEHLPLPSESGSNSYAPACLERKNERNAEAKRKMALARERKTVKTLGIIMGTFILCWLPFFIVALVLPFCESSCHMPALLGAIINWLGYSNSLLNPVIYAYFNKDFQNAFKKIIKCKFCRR
Description: Radioligand Binding Assay at Rat Hippocampal Membranes 5-HT1A Receptors. Binding experiments were performed according to a known method. Rats were killed by decapitation, the brain was quickly removed, and the hippocampus was dissected. […] The homogenate was centrifuged at 48000 g for 15 min at 4° C. The supernatant was discarded, and the pellet was resuspended in 25 mL of buffer, then preincubated for 10 min at 37° C. The homogenate was centrifuged at 48000 g for 15 min at 4° C. The supernatant was discarded, and the final pellet was stored at −80° C. until used. […] For competitive inhibition experiments various concentrations of drugs studied were incubated. […] Samples were incubated at 37° C. for 20 min and then filtered on Whatman GF/B glass microfiber filters.
Statistical Analysis. […] The value for the inhibition constant, Ki, was calculated by using the Cheng-Prusoff equation.

5-HT7 receptor = 5-HT7 receptor (Cavia porcellus, UniProt P50407); assay: Isolated guinea-pig ileum assay: relaxation of substance P-induced contraction; settings: for PA2 (vs SB-269970): in the presence of antagonist SB-269970 (0.1 μM-3 μM); for 5-HT7 intrinsic activity (in words): isolated guinea-pig ileum; for Emax: read-out: Maximal Effect %; for Schild plot: vs SB-269970, p value in parentheses
5-HT7 receptor, sequence (P50407 whole entry): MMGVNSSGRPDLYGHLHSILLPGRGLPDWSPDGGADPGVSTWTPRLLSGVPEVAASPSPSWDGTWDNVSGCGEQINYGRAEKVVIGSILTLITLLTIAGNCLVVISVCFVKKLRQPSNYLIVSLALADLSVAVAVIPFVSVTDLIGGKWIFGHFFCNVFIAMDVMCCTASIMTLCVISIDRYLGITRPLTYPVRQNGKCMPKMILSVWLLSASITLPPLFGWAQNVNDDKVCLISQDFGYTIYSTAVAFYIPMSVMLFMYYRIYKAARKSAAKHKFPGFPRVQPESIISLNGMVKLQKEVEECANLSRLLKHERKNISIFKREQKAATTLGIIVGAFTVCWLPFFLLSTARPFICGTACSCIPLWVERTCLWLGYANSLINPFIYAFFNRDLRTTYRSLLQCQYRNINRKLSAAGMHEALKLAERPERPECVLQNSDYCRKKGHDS
Description: Isolated Guinea-Pig Ileum Assay. Guinea-pigs were anesthetized and then decapitated and the proximal ileum removed. […] Changes in tension of the tissue were recorded by Fort 10 Original WPI isometric transducer (2Biological Instruments, Italy) connected to a PowerLab/400 workstation. […] Tested compounds were added 3 min before substance P addition.
The isolated guinea pig ileum was equilibrated for 75 min with antagonist before constructing concentration-response curves of tested compounds.
Tissue responses were recorded as gram changes in isometric tension and expressed as percentage of reduction in the height of the contraction.
Agonist potencies, expressed as EC50, were obtained from non-linear iterative curve fitting by [sequence] PRISM®.

5-HT2A receptors = 5-HT2A receptors (Rattus norvegicus, UniProt P14842); assay: Radioligand binding assay ([3H]-ketanserin) at rat cortex membranes 5-HT2A receptors; settings: read-out: Ki, nM 5-HT2A; [3H]-ketanserin, rat cortex membranes
5-HT2A receptors, sequence (P14842 whole entry): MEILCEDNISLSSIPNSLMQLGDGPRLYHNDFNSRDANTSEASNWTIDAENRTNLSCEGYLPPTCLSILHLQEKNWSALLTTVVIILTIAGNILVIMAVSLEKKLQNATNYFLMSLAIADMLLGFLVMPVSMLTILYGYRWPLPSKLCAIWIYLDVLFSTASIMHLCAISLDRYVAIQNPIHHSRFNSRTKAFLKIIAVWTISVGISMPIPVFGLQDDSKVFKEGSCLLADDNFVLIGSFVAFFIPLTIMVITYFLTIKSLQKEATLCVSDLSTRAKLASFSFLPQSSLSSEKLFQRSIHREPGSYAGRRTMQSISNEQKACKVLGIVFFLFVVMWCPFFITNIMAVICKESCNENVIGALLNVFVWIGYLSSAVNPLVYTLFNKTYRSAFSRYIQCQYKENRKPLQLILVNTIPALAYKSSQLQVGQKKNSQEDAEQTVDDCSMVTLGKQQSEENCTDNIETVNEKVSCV
Description: Radioligand Binding Assay at Rat Cortex Membranes 5-HT2A Receptors. […] Rats were killed by decapitation, the brain was quickly removed, and the cortex was dissected. […] The homogenate was centrifuged at 2000 g for 10 min at 4° C. The supernatant was saved, and the pellet was resuspended in 25 mL of buffer. The surnatantes were collected and diluted 1:10 w/w with 10 mM Tris pH 7.4. The homogenate was centrifugated at 35000 g for 15 min at 4° C. The supernatant was discarded, and the final pellet was stored at −80° C. until used. […] For competitive inhibition experiments various concentrations of drugs studied were incubated. […] Samples were incubated at 37° C. for 15 min and then filtered on Whatman GF/B glass microfiber filters.
Statistical Analysis. […] PRISM® program. The value for the inhibition constant, Ki, was calculated by using the Cheng-Prusoff equation.

| Compound | Ki [1] [nM] | 5-HT7R affinity (in words) [1] | Ki (5-HT1A receptors) [nM] | Ki (5-HT2A receptors) [nM] | also measured |
| --- | --- | --- | --- | --- | --- |
| NCCc1c[nH]c2ccc(C(N)=O)cc12 [5-CT, reference compound] | 0.51 ± 0.01 |  |  |  |  |
| COc1ccccc1N1CCN(CCC(=O)NC2CCCc3c(OC)cccc32)CC1 (centres unmarked) [Compound 6] | 269 ± 18 | moderate affinities |  |  | 5-HT1A receptor affinity (in words) (5-HT1A receptors): moderate affinities |
| COc1ccccc1N1CCN(CCCC(=O)NC2CCCc3c(OC)cccc32)CC1 (centres unmarked) [Compound 7, N-(5-methoxy-1,2,3,4-tetrahydronaphthalen-1-yl)-4-(2-methoxyphenyl)-1-piperazinebutanamide] | 35 ± 3.2 | moderate affinities | 254 ± 65 |  | 5-HT1A receptor affinity (in words) (5-HT1A receptors): moderate affinities |
| COc1ccccc1N1CCN(CCCCC(=O)NC2CCCc3c(OC)cccc32)CC1 (centres unmarked) [Compound 15] | 28.2 ± 4.2 |  | 54.4 ± 6.5 |  |  |
| COc1ccccc1N1CCN(CCCCCC(=O)NC2CCCc3c(OC)cccc32)CC1 (centres unmarked) [Compound 16] | 20 ± 2.5 |  | 24.5 ± 1.8 |  |  |
| COc1ccc2c(c1)CCCC2NC(=O)CCCN1CCN(c2ccccc2OC)CC1 (centres unmarked) [Compound 17] | 186 ± 40 |  | 257 ± 25 |  |  |
| COc1ccc2c(c1)CCCC2NC(=O)CCCCN1CCN(c2ccccc2OC)CC1 (centres unmarked) [Compound 18] | 43.1 ± 4.8 |  | 23.2 ± 2.3 |  |  |
| COc1ccc2c(c1)CCCC2NC(=O)CCCCCN1CCN(c2ccccc2OC)CC1 (centres unmarked) [Compound 19] | 30 ± 3.15 |  | 55 ± 8 |  |  |
| COc1ccc2c(c1)C(NC(=O)CCCN1CCN(c3ccccc3OC)CC1)CCC2 (centres unmarked) [Compound 20] | 129 ± 5 |  | 160 ± 12 |  |  |
| COc1ccc2c(c1)C(NC(=O)CCCCN1CCN(c3ccccc3OC)CC1)CCC2 (centres unmarked) [Compound 21] | 38.4 ± 4.6 |  | 78.9 ± 6.3 |  |  |
| COc1ccc2c(c1)C(NC(=O)CCCCCN1CCN(c3ccccc3OC)CC1)CCC2 (centres unmarked) [Compound 22] | 41 ± 11 |  | 39 ± 6.5 |  |  |
| COc1ccccc1N1CCN(CCCC(=O)NC2CCCc3cccc(OC)c32)CC1 (centres unmarked) [Compound 23, N-(8-Methoxy-1,2,3,4-tetrahydronaphthalen-1-yl)4-(2-methoxyphenyl)-1-piperazinebutanamide] | 154 ± 35 |  | 441 ± 20 |  |  |
| COc1ccccc1N1CCN(CCCCC(=O)NC2CCCc3cccc(OC)c32)CC1 (centres unmarked) [Compound 24] | 64 ± 12 |  | 72 ± 18 |  |  |
| COc1ccccc1N1CCN(CCCCCC(=O)NC2CCCc3cccc(OC)c32)CC1 (centres unmarked) [Compound 25] | 31.4 ± 3.5 |  | 30 ± 2.6 |  |  |
| COc1ccccc1N1CCN(CCCC(=O)NC2CCCc3ccccc32)CC1 (centres unmarked) [Compound 26, 4-(2-Methoxyphenyl)-N-(1,2,3,4-tetrahydronaphthalen-1-yl)-1-piperazinebutanamide] | 92 ± 12 |  | 245 ± 20 |  |  |
| COc1ccccc1N1CCN(CCCCC(=O)NC2CCCc3ccccc32)CC1 (centres unmarked) [Compound 27, 4-(2-Methoxyphenyl)-N-(1,2,3,4-tetrahydronaphthalen-1-yl)-1-piperazinepentanamide] | 6.05 ± 0.25 |  | 9 ± 0.7 |  |  |

| Compound | Ki [1] [nM] | 5-HT7R affinity (in words) [1] | Ki (5-HT1A receptors) [nM] | Ki (5-HT2A receptors) [nM] | also measured |
| --- | --- | --- | --- | --- | --- |
| COc1ccccc1N1CCN(CCCCCC(=O)NC2CCCc3ccccc32)CC1 (centres unmarked) [Compound 28, 4-(2-Methoxyphenyl)-N-(1,2,3,4-tetrahydronaphthalen-1-yl)-1-piperazinehexanamide] | 6.64 ± 0.6 | high affinity | 8.6 ± 0.35 |  | EC50 (5-HT7 receptor): 6320 ± 200 nM; PA2 (vs SB-269970) (5-HT7 receptor): 8.02 ± 1.40; 5-HT7 intrinsic activity (in words) (5-HT7 receptor): Full agonists; Emax (5-HT7 receptor): 91%; Schild plot (5-HT7 receptor): 1.0 (p < 0.0001) |
| N#Cc1ccccc1N1CCN(CCCCCC(=O)NC2CCCc3ccccc32)CC1 (centres unmarked) [Compound 33] | 48.7 ± 2.5 | reasonably good 5-HT7R affinity | 16.6 ± 1.4 | 700 ± 25 |  |
| CC(=O)c1ccccc1N1CCN(CCCCCC(=O)NC2CCCc3ccccc32)CC1 (centres unmarked) [Compound 34, 4-(2-Acetylphenyl)-N-(1,2,3,4-tetrahydronaphthalen-1-yl)-1-piperazinehexanamide] | 4.14 ± 0.8 | reasonably good 5-HT7R affinity; also recorded: high affinity | 3.8 ± 0.1 | 12200 ± 350 | EC50 (5-HT7 receptor): 2460 ± 700 nM; PA2 (vs SB-269970) (5-HT7 receptor): 7.60 ± 0.49; 5-HT7 intrinsic activity (in words) (5-HT7 receptor): partial agonist; Emax (5-HT7 receptor): 79%; Schild plot (5-HT7 receptor): 1.3 (p < 0.0001) |
| COc1cc(Cl)ccc1N1CCN(CCCCCC(=O)NC2CCCc3ccccc32)CC1 (centres unmarked) [Compound 35] | 122 ± 14 |  | 332 ± 27 | 7170 ± 150 |  |
| COc1ccc(OC)c(N2CCN(CCCCCC(=O)NC3CCCc4ccccc43)CC2)c1 (centres unmarked) [Compound 36] | 70.3 ± 5.2 |  | 911 ± 23 | 259 ± 20 |  |
| COc1cccc(N2CCN(CCCCCC(=O)NC3CCCc4ccccc43)CC2)c1 (centres unmarked) [Compound 37] | 119 ± 20 |  | 105 ± 12 | 142 ± 20 |  |
| COc1ccc(N2CCN(CCCCCC(=O)NC3CCCc4ccccc43)CC2)cc1 (centres unmarked) [Compound 38] | 2100 ± 150 | nearly devoid of 5-HT7R affinity |  |  |  |
| N#Cc1cccc(N2CCN(CCCCCC(=O)NC3CCCc4ccccc43)CC2)c1 (centres unmarked) [Compound 39] | 97.8 ± 5.6 |  | 291 ± 15 | 909 ± 85 |  |
| N#Cc1ccc(N2CCN(CCCCCC(=O)NC3CCCc4ccccc43)CC2)cc1 (centres unmarked) [Compound 40] | 1400 ± 120 | nearly devoid of 5-HT7R affinity |  |  |  |
| CC(=O)c1cccc(N2CCN(CCCCCC(=O)NC3CCCc4ccccc43)CC2)c1 (centres unmarked) [Compound 41] | 496 ± 24 |  | 676 ± 32 | 1130 ± 200 |  |
| CC(=O)c1ccc(N2CCN(CCCCCC(=O)NC3CCCc4ccccc43)CC2)cc1 (centres unmarked) [Compound 42] | 2640 ± 130 | nearly devoid of 5-HT7R affinity |  |  |  |
| O=C(CCCCCN1CCN(c2ccccc2O)CC1)NC1CCCc2ccccc21 (centres unmarked) [Compound 46, 4-(2-Hydroxyphenyl)-N-(1,2,3,4-tetrahydronaphthalen-1-yl)-1-piperazinehexanamide] | 11.4 ± 2.3 | high affinity | 24 ± 6.3 | 3390 ± 225 | 5-HT7 intrinsic activity (in words) (5-HT7 receptor): antagonist; Emax (5-HT7 receptor): 0%; Schild plot (5-HT7 receptor): 1.6 (p < 0.005) |
| O=C(CCCCCN1CCN(c2ccccc2Cl)CC1)NC1CCCc2ccccc21 (centres unmarked) [Compound 47] | 40.1 ± 6.7 |  | 96 ± 8 | 301 ± 12 |  |
| O=C(CCCCCN1CCN(c2ccccc2[N+](=O)[O-])CC1)NC1CCCc2ccccc21 (centres unmarked) [Compound 48] | 63.3 ± 7.5 |  | 183 ± 15 | 282 ± 35 |  |
| Cc1ccccc1N1CCN(CCCCCC(=O)NC2CCCc3ccccc32)CC1 (centres unmarked) [Compound 49, 4-(2-Methylphenyl)-N-(1,2,3,4-tetrahydronaphthalen-1-yl)-1-piperazinehexanamide] | 15.2 ± 3.2 | high affinity | 279 ± 44 | 262 ± 24 | EC50 (5-HT7 receptor): 1820 ± 720 nM; PA2 (vs SB-269970) (5-HT7 receptor): 7.80 ± 0.40; 5-HT7 intrinsic activity (in words) (5-HT7 receptor): Full agonists; Emax (5-HT7 receptor): 98%; Schild plot (5-HT7 receptor): 0.9 (p < 0.0001) |
| O=C(CCCCCN1CCN(c2ccccc2)CC1)NC1CCCc2ccccc21 (centres unmarked) [Compound 50] | 65.6 ± 4.7 |  | 128 ± 22 | 77.8 ± 5.7 |  |
